This note sets out measurements from patent publication US7696248B2 (Eli Lilly and Company, priority 2005, dated 2010).

Molecules are shown by their SMILES.

For this experiment, the target named is cloned human glucagon receptor (Homo sapiens, UniProt P47871). The experiment can be described thus: Glucagon Receptor (hGlucR) Binding Assay.
cloned human glucagon receptor, sequence (P47871 26-477): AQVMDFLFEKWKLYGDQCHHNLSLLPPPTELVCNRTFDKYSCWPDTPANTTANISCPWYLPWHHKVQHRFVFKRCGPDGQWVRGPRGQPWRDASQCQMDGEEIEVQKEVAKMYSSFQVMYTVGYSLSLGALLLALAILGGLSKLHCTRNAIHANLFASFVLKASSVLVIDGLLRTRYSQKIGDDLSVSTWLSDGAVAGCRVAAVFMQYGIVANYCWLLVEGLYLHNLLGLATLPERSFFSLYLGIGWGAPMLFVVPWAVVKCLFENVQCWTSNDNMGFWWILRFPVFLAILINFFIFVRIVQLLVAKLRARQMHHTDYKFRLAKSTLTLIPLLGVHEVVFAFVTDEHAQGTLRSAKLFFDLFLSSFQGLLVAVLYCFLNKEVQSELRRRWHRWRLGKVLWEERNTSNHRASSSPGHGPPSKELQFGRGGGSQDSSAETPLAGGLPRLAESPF

Procedure: This plasmid DNA is transfected into 293 HEK cells and selected with 200 μg/mL Hygromycin.
Crude plasma membranes are prepared using cells from suspension culture. The cells are lysed on ice in hypotonic buffer containing 25 mM Tris HCL, pH 7.5, 1 mM MgCl2, DNAse1, 20 u/mL, and Roche Complete Inhibitors-without EDTA. The cell suspension is homogenized with a glass dounce homogenizer using a Teflon pestle for 25 strokes. The homogenate is centrifuged at 4 degrees C. at 1800×g for 15 mins. The supernate is collected and the pellet is resuspended in hypotonic buffer and rehomogenized. The mixture is centrifuged at 1800×g for 15 mins. The second supernate is combined with the first supernate. The combined supernates are recentrifuged at 1800×g for 15 mins to clarify. The clarified supernate is transferred to high speed tubes and centrifuged at 25000×g for 30 minutes at 4 degrees C. The membrane pellet is resuspended in homogenization buffer and stored as frozen aliquots at −80 degree C. freezer until needed.
The specific activity is 2200 Ci/mmol.
The binding buffer contains 25 mM Hepes, pH 7.4, 2.5 mM CaCl2, 1 mM MgCl2, 0.1% fatty acid free BSA, (ICN), 0.003% tween-20, and Roche Complete Inhibitors without EDTA. […] Test compounds are dissolved in DMSO and serially diluted in DMSO. […] Plates are read with a MicroBeta after 14 hours of settling time at room temp. […]

`CCCCCC(Nc1ccc(-c2ccc(C#N)cc2)cc1)c1ccc(C(=O)NCCC(=O)O)cc1` (centres unmarked) yielded a Ki of 173 nM.
The result for `CC(C)CC(Nc1ccc(-c2ccc(C(C)(C)C)cc2)cc1)c1ccc(C(=O)NCCC(=O)O)cc1` (centres unmarked) reads 40 nM.
